Drawing on PMC8286840, “Identifying SARS-CoV-2 antiviral compounds by screening for small molecule inhibitors of Nsp3 papain-like protease” (Biochemical Journal, 2021), this text covers remaining activity for 28 compounds.

The target in test [1] is T1, SARS-CoV-2 PLpro (nsp3 1564–1878) (Severe acute respiratory syndrome coronavirus 2, UniProt P0DTD1). As to the kind of experiment: biochemical. Also on record: FRET-quenched peptide (Pro3) cleavage by PLpro, 10 min pre-incubation, slope over 20 min, normalised to no-compound control. The note with it: low concentration screen, read-out: % of control remaining.
Test [2] has as its target T1, SARS-CoV-2 PLpro (nsp3 1564–1878). As to the kind of experiment: biochemical. Also on record: FRET-quenched peptide (Pro3) cleavage by PLpro, 10 min pre-incubation, slope over 20 min, normalised to no-compound control. The note with it: high concentration screen, read-out: % of control remaining.

Counter-ions that a name gives are not always drawn. Like-named read-outs stand apart in the source and are kept apart here.

Regarding `CNC(=O)c1ccccc1Nc1nc(Nc2ccc(N3CCOCC3)cc2OC)ncc1Cl` [NVP-TAE226], the remaining activity at 1.25 µM in test [1] (Well no.=4789) came out at 103%. Also, the remaining activity at 3.75 µM in test [2] (Well no.=4789) is 105%.

`C[N+]1(C)CCC[C@H]1C(=O)[O-]` [Stachydrine hydrochloride]: the remaining activity at 1.25 µM in test [1] (Well no.=8032) was 98.3%. Besides, the remaining activity at 3.75 µM in test [2] (Well no.=8032) turned out to be 96.9%.

Take `CC(=O)C1=C(O)C(=O)N(c2ccc(Cl)cc2F)[C@@H]1C1CCCCC1` [CCR2-RA-[R]]: the remaining activity at 1.25 µM turned out to be 100% in test [1] (Well no.=8118) and 96.6% in test [1] (Well no.=8229). Also, the remaining activity at 3.75 µM in test [2] (Well no.=8118) amounted to 95.9%; in test [2] (Well no.=8229) it was 91.4%.

With `NC(N)=NCC(=O)O` [2-Guanidinoacetic acid], in test [1] (Well no.=6437), the remaining activity at 1.25 µM was 103%. Besides, in test [2] (Well no.=6437), the remaining activity at 3.75 µM was 105%.

Consider `Cc1nn(C)c2nc(NNC(=O)Nc3cc(Cl)nc(Cl)c3)cc(C(C)C)c12` [N-(2,6-dichloro-4-pyridinyl)-2-(4-isopropyl-1,3-dimethyl-1H-pyrazolo[3,4-b]pyridin-6-yl)hydrazinecarboxamide], for which the remaining activity at 1.25 µM in test [1] (Well no.=5923) came to 104%. In test [2] (Well no.=5923), the remaining activity at 3.75 µM is 100%.

`CC(=O)O/N=C1/C(c2c(O)[nH]c3cc(Br)ccc23)=Nc2ccccc21` [GSK-3 Inhibitor X]: the remaining activity at 1.25 µM in test [1] (Well no.=2468) stood at 101%. Also, the remaining activity at 3.75 µM in test [2] (Well no.=2468) was found to be 105%.

Regarding `O=c1[nH]c(=O)c2nc[nH]c2[nH]1` [Xanthine], the remaining activity at 1.25 µM in test [1] (Well no.=7203) turned out to be 97.4%. The remaining activity at 3.75 µM in test [2] (Well no.=7203) was found to be 96.5%.

As for `O=C(/C=C/C=C/c1ccc2c(c1)OCO2)N1CCCCC1` [Piperine], the remaining activity at 1.25 µM in test [1] (Well no.=3110) was 92.8%; in test [1] (Well no.=8242), 99.3%. The results for the remaining activity at 3.75 µM in test [2] (Well no.=3110) and in test [2] (Well no.=8242) were 94.5% and 96.3%, respectively.

Take `COc1ccc(CCN(C)CCCC(C#N)(c2ccc(OC)c(OC)c2)C(C)C)cc1OC` (stereo not shown) [Verapamil]: the remaining activity at 1.25 µM in test [1] (Well no.=1721) came to 100%. Moreover, the remaining activity at 3.75 µM in test [2] (Well no.=1721) was determined as 100%.

In the case of `CC(C)[C@H](CO)Nc1nc(Nc2ccc(C(=O)O)c(Cl)c2)c2ncn(C(C)C)c2n1` [Purvalanol B - (2R)-2-[[6-[(3-Chloro-4-carboxyphenyl)amino]-9-(1-methylethyl)-9H-purin-2-yl]amino]-3-methyl-1-butanol], the remaining activity at 1.25 µM in test [1] (Well no.=2436) is 103%. Further, the remaining activity at 3.75 µM in test [2] (Well no.=2436) was 105%.

On to `Clc1ccc2nsnc2c1NC1=NCCN1` [Tizanidine.HCl], for which the remaining activity at 1.25 µM in test [1] (Well no.=1563) was found to be 98.4%. Besides, the remaining activity at 3.75 µM in test [2] (Well no.=1563) is 98%.

With `COc1ccc(O)cc1` [Mequinol], in test [1] (Well no.=4736), the remaining activity at 1.25 µM came out at 100%. Also, the remaining activity at 3.75 µM in test [2] (Well no.=4736) was 99.8%.

In the case of `C[C@]1(C(=O)O)CCC[C@]2(C)c3cc(O)ccc3CC[C@@H]12` [Podocarpic acid], in test [1] (Well no.=3296), the remaining activity at 1.25 µM came to 94%. Moreover, the remaining activity at 3.75 µM in test [2] (Well no.=3296) stood at 96.2%.

In the case of `C#C[C@]1(O)CC[C@H]2[C@@H]3CCC4=Cc5nc6nc7ccccc7n6cc5C[C@]4(C)[C@H]3CC[C@@]21C` [WIN 62,577], the remaining activity at 1.25 µM in test [1] (Well no.=1196) is 99.9%. Moreover, the remaining activity at 3.75 µM in test [2] (Well no.=1196) turned out to be 97.4%.

As for `CC(C)c1cc(C(C)C)c(CC(=O)NS(=O)(=O)Oc2c(C(C)C)cccc2C(C)C)c(C(C)C)c1` [Avasimibe], the remaining activity at 1.25 µM in test [1] (Well no.=5705) worked out at 99.6%; in test [1] (Well no.=8336), 89.6%. In addition, the remaining activity at 3.75 µM in test [2] (Well no.=5705) came out at 96.6%; in test [2] (Well no.=8336), 88%.

`C=CCn1c(=O)c2cnc(Nc3ccc(N4CCN(C)CC4)cc3)nc2n1-c1cccc(C(C)(C)O)n1` [MK-1775]: the remaining activity at 1.25 µM in test [1] (Well no.=4947) turned out to be 102%. For the same compound, the remaining activity at 3.75 µM in test [2] (Well no.=4947) worked out at 99.7%.

On to `CC1=CC(=O)NS(=O)(=O)O1` [Acesulfame Potassium], for which the remaining activity at 1.25 µM in test [1] (Well no.=5318) was 94.9%. For the same compound, the remaining activity at 3.75 µM in test [2] (Well no.=5318) stood at 93.1%.

In the case of `CC(C)[C@@H]1NC(=O)[C@H](C)OC(=O)[C@@H](C(C)C)NC(=O)[C@@H](C(C)C)OC(=O)[C@H](C(C)C)NC(=O)[C@H](C)OC(=O)[C@@H](C(C)C)NC(=O)[C@@H](C(C)C)OC(=O)[C@H](C(C)C)NC(=O)[C@H](C)OC(=O)[C@@H](C(C)C)NC(=O)[C@@H](C(C)C)OC1=O` [Valinomycin], the remaining activity at 1.25 µM in test [1] (Well no.=3631) came to 99.9%. Besides, in test [2] (Well no.=3631), the remaining activity at 3.75 µM was 101%.

In the case of `NCc1c[nH]c(=S)n1[C@H]1CCc2c(F)cc(F)cc2C1` [Nepicastat hydrochloride], in test [1] (Well no.=6033), the remaining activity at 1.25 µM was found to be 100%. Further, in test [2] (Well no.=6033), the remaining activity at 3.75 µM turned out to be 102%.

As for `Cn1cnc2c1c(=O)[nH]c(=O)n2C` [Theobromine], the remaining activity at 1.25 µM in test [1] (Well no.=1479) came out at 96.7%; in test [1] (Well no.=3491) it was 95.7%; in test [1] (Well no.=6387), 101%; in test [1] (Well no.=8067), 106%. The remaining activity at 3.75 µM in test [2] (Well no.=1479) was found to be 97.3%; in test [2] (Well no.=3491), 96.4%; in test [2] (Well no.=6387), 102%; in test [2] (Well no.=8067) it was 104%.

On to `CC(C)n1cnc2c(NCCc3ccc(O)cc3)nc(-c3csc4ccccc34)nc21` [StemRegenin 1], for which the remaining activity at 1.25 µM in test [1] (Well no.=4827) was determined as 101%. Moreover, in test [2] (Well no.=4827), the remaining activity at 3.75 µM was found to be 98.2%.

Turning to `C=CC(=O)N1CCN(C(=O)CNc2cc(I)c(Cl)cc2O)CC1` [K-Ras(G12C) inhibitor 12], the remaining activity at 1.25 µM in test [1] (Well no.=7951) stood at 99.9%. For the same compound, the remaining activity at 3.75 µM in test [2] (Well no.=7951) worked out at 90.4%.

On to `COc1ccc([C@@H]2OC[C@@H]3[C@H]2CO[C@H]3c2ccc(OC)c(OC)c2)cc1OC` [Eudesmine], for which, in test [1] (Well no.=3117), the remaining activity at 1.25 µM is 95.1%. The remaining activity at 3.75 µM in test [2] (Well no.=3117) came out at 88.7%.

In the case of `Cc1[nH]c2ccccc2c1CCNC(=O)c1cccs1` [CK-636], the remaining activity at 1.25 µM in test [1] (Well no.=5636) worked out at 102%. Moreover, the remaining activity at 3.75 µM in test [2] (Well no.=5636) stood at 100%.

As to `CNCC(O)c1ccc(O)cc1` (racemic), the remaining activity at 1.25 µM in test [1] (Well no.=1356) came out at 102%. Besides, the remaining activity at 3.75 µM in test [2] (Well no.=1356) amounted to 104%.

As to `CCCCc1c(-c2ccc(OC)cc2)[nH]c2nccnc12` [Aloisine, RP106], the remaining activity at 1.25 µM in test [1] (Well no.=2320) came out at 96.9%. Further, the remaining activity at 3.75 µM in test [2] (Well no.=2320) was determined as 94.7%.

With `CC(=O)N[C@@H](Cc1ccc(O)cc1)C(=O)O` [N-Acetyl-L-tyrosine], the remaining activity at 1.25 µM in test [1] (Well no.=6677) was 105%; in test [1] (Well no.=8704) it was 101%. The remaining activity at 3.75 µM in test [2] (Well no.=6677) came out at 104%; in test [2] (Well no.=8704), 99.9%.

On to `CCCCC/C=C\C/C=C\CCCCCCCC(N)=O` [Linoleamide], for which the remaining activity at 1.25 µM in test [1] (Well no.=4338) stood at 101%. The remaining activity at 3.75 µM in test [2] (Well no.=4338) was 92.5%.
